Measurements taken from publication PMC6151385, “Simultaneous Determination of Seven Phenolic Acids in Rat Plasma Using UHPLC-ESI-MS/MS after Oral Administration of Echinacea purpurea Extract” (Molecules : A Journal of Synthetic Chemistry and Natural …, 2017).

Experiments:
[1] = Stability of the analytes in rat plasma QC samples under different storage conditions; assay type: physicochemical; conditions: post-preparation samples, 12 h at 4 °C, n = 6
Method: The post-preparation samples were analyzed after storage for 12 h at 4 °C. The peak area ratio response of stability samples was determined and versus those freshly prepared. For all stability results, the analyzing samples were considered stable when the percentage of relative error (RE) was within ±15% compared with freshly prepared QC samples.

[2] = as above; assay type: physicochemical; conditions: n = 6; for Stability (RE%) Short-Term: 4 h at room temperature; for Stability (RE%) Freeze-Thaw: three freeze-thaw cycles (−20 °C / ambient); for Stability (RE%) Long-Term: −20 °C for 2 weeks
[3] = Pharmacokinetic study of seven phenolic acids in rat plasma after oral administration of E. purpurea extract (UHPLC-ESI-MS/MS); assay type: in vivo; conditions: male SD rats, oral E. purpurea extract 10 g/kg, n = 12, mean ± SD; for AUC(0-inf) / AUC(0-t) / Cmax / Tmax / half-life: Sprague-Dawley, rat
Method: Twelve male Sprague-Dawley (SD) rats (body weight 220 ± 20 g) were provided by Heilongjiang University of Chinese Medicine (Harbin, China). Each rat fasted 12 h before administration, with free drinking during the experiment. Blood samples were obtained from rats after oral administration of the extract of E. purpurea with a dose of 10 g/kg body weight. Blood samples (0.25 mL) of the retinal venous plexus were taken at 0.083, 0.25, 0.75, 1.0, 1.5, 2, 3, 4, 6, 8, 12, 24 and 36 h, then moved immediately into a 0.5 mL centrifuge tube that was spread with heparin at each time point. Meanwhile, the animal blood was centrifuged at 13,000 rpm for 5 min at 4 °C. The plasma was frozen in a −20 °C refrigerator in case of deterioration.
First, the frozen plasma was thawed at room temperature and then a liquid–liquid extraction (LLE) method was utilized. Then, a 100 μL aliquot of each plasma sample was removed except for the calibration standards which was mixed with 10 μL IS into a 10 mL glass tube. We continued by adding 100 μL methanol and 100 μL 30% formic acid, vortex-mixing for 1 min, then extracted 3 mL ethyl acetate, vortex-mixing for 3 min, centrifuged for 5 min (3500 rpm), and transferred the upper organic layer into a new tube. The layer of ethyl acetate was dried with a stream of nitrogen, the dry residue was dissolved with a 100 μL mobile phase, vortexed for 2 min and samples were filtered by a 0.22 μm microporous membrane. A 10 μL aliquot was injected into the UHPLC-ESI-MS/MS system.
The rat plasma concentration-time curves of seven compounds were plotted. After oral administration of E. purpurea extract in twelve rats, the maximum drug concentration in rat plasma (Cmax) and the time to reach maximum drug concentration (Tmax) were directly obtained from concentration-time data. The elimination rate constant (Ke) was calculated by linear regression of the terminal points in a semi-log plot of the plasma concentration against time. The elimination half-life (T1/2) was calculated by the formula T1/2 = 0.693/Ke. Other pharmacokinetic parameters including the area under the concentration-time curve (AUC0→t), and the area under the plasma concentration-time curve to time infinity (AUC0→∞) were calculated using non-compartmental pharmacokinetics analysis.

Compound	Stability (RE%) Post-Preparative ([1]; high QC) [%]	Stability (RE%) Post-Preparative ([1]; low QC) [%]	Stability (RE%) Post-Preparative ([1]; medium QC) [%]	Stability (RE%) Short-Term ([2]; high QC) [%]	Stability (RE%) Freeze-Thaw ([2]; high QC) [%]	Stability (RE%) Long-Term ([2]; high QC) [%]	Stability (RE%) Short-Term ([2]; low QC) [%]	Stability (RE%) Freeze-Thaw ([2]; low QC) [%]	Stability (RE%) Long-Term ([2]; low QC) [%]	Stability (RE%) Short-Term ([2]; medium QC) [%]	Stability (RE%) Freeze-Thaw ([2]; medium QC) [%]	Stability (RE%) Long-Term ([2]; medium QC) [%]	AUC(0-inf) [3] [ng·h/mL]	AUC(0-t) [3] [ng·h/mL]	Cmax [3] [ng/mL]	Tmax [3] [h]	half-life [3] [h]	T1/2 [3] [h]
O=C(O)c1ccc(O)c(O)c1 [3,4-Dihydroxy benzoic acid, 3,4-dihydroxybenzoic acid]	−4.01	9.29	−5.47	4.80	−0.52	3.65	2.03	−0.11	−2.93	10.18	6.57	2.30	2050 ± 116	1930 ± 123	127 ± 18.1	0.77 ± 0.07	7.45 ± 0.87	
O=C(O)/C=C/c1ccc(O)c(O)c1 [Caffeic acid, caffeic acid]	9.83	10.35	3.89	6.12	6.15	−1.54	7.45	7.79	6.01	−0.16	2.18	1.00	9330 ± 442	9220 ± 453	855 ± 35.9	8	5.31 ± 0.5	
COc1cc(/C=C/C(=O)O)ccc1O [Ferulic acid, ferulic acid]	−4.91	−0.89	4.84	−8.77	−13.12	−1.89	−4.21	−7.10	7.93	4.61	−3.80	6.80	6020 ± 498	5620 ± 453	359 ± 43.8	8	8.48 ± 0.71	
COc1cc(C(=O)O)ccc1O [Vanillic acid, vanillic acid]	−8.03	9.11	−6.34	1.59	5.28	−0.32	2.24	−6.56	2.91	−0.67	5.74	−0.37	3440 ± 234	3140 ± 264	228 ± 11.9	0.75		8.89 ± 1.12
O=C(O)c1ccc(O)cc1 [4-Hydroxy benzoic acid, 4-hydroxybenzoic acid]	7.71	−6.42	10.47	−2.50	−1.01	2.81	10.62	10.03	−3.31	−0.46	2.63	0.21	1950 ± 176	1640 ± 122	145 ± 11.6	1.96 ± 0.14	14.9 ± 5.37	
O=C(O)/C=C/c1ccc(O)cc1 [p-Coumaric acid, p-coumaric acid]	7.12	8.52	11.50	−4.81	−8.78	−5.30	−3.59	−7.57	−6.75	1.57	−0.82	−5.40	3440 ± 218	3130 ± 156	293 ± 16.4	0.75	9.32 ± 1.29	
COc1cc(C(=O)O)cc(OC)c1O [Syringic acid, syringic acid]	−6.08	−10.74	−7.64	−5.73	−2.61	−1.30	−1.95	−3.75	−0.66	−1.50	4.48	−0.79	1950 ± 164	1650 ± 133	122 ± 16.4	1.54 ± 0.14	13.2 ± 1.66	
